Data reported in US7723388B2, “Avian appeasing pheromones to decrease stress, anxiety and aggressiveness” (priority 2002, dated 2010).

Tested on: population of mites (Dermanyssus gallinae, Omithonyssus sylvianm)
Assay: In vitro sensitivity of the mite population to mite treatments
Conditions: for Dose to obtain LD50 / Dose to obtain LD100: pd: prescribed dose; for Dose to obtain LD50: 50% of mites killed over 24 hours; for Dose to obtain LD100: 100% of mites killed in 24 hours; for LD 100 at the dose of the product notice: surroundings corresponding to the conditions of breeding
Experimental: Mites were also tested for during the course of this example. At day 0, the first diffusers of the avian appeasing pheromone were posed and the sampling of mites was effectuated. For the 12 samples that were taken, 5 samples permitted the identification of the species of mites in the breeding; 3 were utilized and placed in a mite culture and recuperated at the end of the internal experiment; and 4 served to test the sensitivity of parasites to the mites used.
On the 5 samples effectuated, […] samples of parasites were identified. 76% (n=86) were identified as Dermanyssus gallinae (chicken mites) and 24% (n=28) were Omithonyssus sylvianm (Northern Fowl mites).
Testing the sensitivity of the mites was next conducted. This test was performed in the population of mites with an in vitro system that verifies the sensitivity of the mite treatment utilized (Carbamate).
The parasites were thus exposed to a variety of concentrations of miticide. The dosage was determined by the value of the notice of dosage recommendation on the product.
Under experimental conditions 2 lots (T1 and T2) were subjected to the tests. The T1 lot corresponded to a universal test, which is not authorized in breeding since Ivermectine was used. Lot 2 corresponded to a test made with Amitraze.

Compound | Dose to obtain LD50 [pd] | Dose to obtain LD100 [pd] | LD 100 at the dose of the product notice
Cc1ccc(/N=C/N(C)/C=N/c2ccc(C)cc2C)c(C)c1 [Amitraze] | 1 | 1 | obtained with the doses prescribed
Ivermectine | 1 | 1 | obtained with the doses prescribed
